# Assay results as given in paper PMC8581430, “Peptide ligands targeting FGF receptors promote recovery from dorsal root crush injury via AKT/mTOR signaling” (Theranostics, 2021).
# System: mTOR (phosphorylated) in DRG explants
# Assay: Western blot of phosphorylated mTOR in DRG explants
# Format: cell-based, rat
# Details: CH02 20 μM + inhibitor 2 μM, 4 h, n = 3
# Method: Figure 7 CH02-stimulated activation of AKT/mTOR signaling is required for growth potential augmentation of axons. (A) Immunoblot analysis showing phosphorylated mTOR expression in C5-T1 DRGs subjected to dorsal root injury followed by CH02 treatment (20 μM). DRG samples were collected 3 days post-treatment. (B) Quantification of p-mTOR expression levels in A. n = 3 independent experiments. Relative protein expression levels were quantified after normalization to mTOR. Values are means ± SEM. (C) Immunoblot showing phosphorylated mTOR expression in DRG explants pretreated with DMSO (control), CH02 (20 μM), CH02+AKTi (2 μM) or CH02+ U0126 (2 μM) for 4 h. (D) Quantification of the p-mTOR expression from C. n = 3 independent experiments. Relative protein expression levels were quantified after normalization to mTOR. […] The axon is shown in fluorescence (β3-tubulin) images. […] (F) Quantification of the longest axon length of each neuron from (E) (n = 62 for each condition; *Control vs. CH02, CH02+Torin1, Torin1; # CH02 vs. CH02+Torin1; **p < 0.01, ****p < 0.0001, #p < 0.05 by one-way ANOVA with Dunnett's test; ns, not significant; mean ± SD). […] (H) Quantification of axon growth in DRG explants from (G) using Neurite-J software (n = 4 for each condition; *control vs. CH02, CH02+Torin1, Torin1; *p < 0.05, **p < 0.01, ***p < 0.001, ****p < 0.0001 by two-way ANOVA with Dunnett's test; mean ± SEM). […]
smiles,measurement,value
N#CC(=C(/N)Sc1ccccc1N)/C(C#N)=C(/N)Sc1ccccc1N [U0126],effect of inhibitor on CH02-induced phosphorylated mTOR,had little effect
